The conditions of the series: 298.15 K, 101.33 kPa, Liquid; for viscosity: Capillary tube (Ostwald / Ubbelohde) method.

The structures appear in SMILES notation. Numbers after ± are expanded uncertainties.

By mass density is commonly meant mass per unit of volume. As usually defined, the viscosity is the resistance of a fluid to flow. Turning to `CCO` [ethanol], the mass density stood at 785.46 ± 0.47 kg/m3 and the viscosity is 1.082 ± 0.009 mPa·s.

On to `CCOS(=O)(=O)[O-].CCn1cc[n+](C)c1` [1-ethyl-3-methylimidazolium ethyl sulfate], for which the viscosity is 97.58 ± 4 mPa·s. For the same compound, the mass density (Vibrating tube method) was 1237.63 ± 8.3 kg/m3.

For the origin of these results see the NIST ThermoML archive (doi:10.1021/je700710d).
